Experimental data published in ChEMBL document CHEMBL1629674, “Surveillance of carbapenem-resistant Pseudomonas aeruginosa isolates from Puerto Rican Medical Center Hospitals: dissemination of KPC and IMP-18 beta-lactamases” (2009).
Converted amounts (≈) assume the structure as drawn.

Legend:
[1] = tested on: Pseudomonas aeruginosa; assay: Antimicrobial activity against Pseudomonas aeruginosa PS20A with PFGE phenotype 11D obtained from skin of patient by agar dilution method; assay type: functional
[2] = tested on: Pseudomonas aeruginosa; assay: Antimicrobial activity against Pseudomonas aeruginosa PS35 with PFGE phenotype 11A obtained from urine of patient by agar dilution method; assay type: functional
[3] = tested on: Pseudomonas aeruginosa; assay: Antimicrobial activity against Pseudomonas aeruginosa PS21 with PFGE phenotype 11F obtained from skin of patient by agar dilution method; assay type: functional
[4] = tested on: Pseudomonas aeruginosa; assay: Antimicrobial activity against Pseudomonas aeruginosa PS31 with PFGE phenotype 11B obtained from skin of patient by agar dilution method; assay type: functional
[5] = tested on: Pseudomonas aeruginosa; assay: Antimicrobial activity against Pseudomonas aeruginosa PS4 with PFGE phenotype 9B expressing beta-lactamase IMP-18 obtained from sputum of patient by agar dilution method; assay type: functional
[6] = tested on: Pseudomonas aeruginosa; assay: Antimicrobial activity against Pseudomonas aeruginosa PS10 with PFGE phenotype 1A expressing beta-lactamase KPC-2 obtained from blood of patient by agar dilution method; assay type: functional
[7] = tested on: Pseudomonas aeruginosa; assay: Antimicrobial activity against Pseudomonas aeruginosa PS33 with PFGE phenotype 9A obtained from blood of patient by agar dilution method; assay type: functional
[8] = tested on: Pseudomonas aeruginosa; assay: Antimicrobial activity against Pseudomonas aeruginosa PS26 with PFGE phenotype 3A expressing beta-lactamase OXA-2 obtained from sputum of ICU patient by agar dilution method; assay type: functional
[9] = tested on: Pseudomonas aeruginosa; assay: Antimicrobial activity against Pseudomonas aeruginosa PS37 with PFGE phenotype 11D obtained from sputum of patient by agar dilution method; assay type: functional
[10] = tested on: Pseudomonas aeruginosa; assay: Antimicrobial activity against Pseudomonas aeruginosa PS40 with PFGE phenotype 5 expressing beta-lactamase KPC-2, OXA-2 obtained from urine of patient by agar dilution method; assay type: functional
[11] = tested on: Pseudomonas aeruginosa; assay: Antimicrobial activity against Pseudomonas aeruginosa PS44 with PFGE phenotype 13 expressing beta-lactamase IMP-18 obtained from blood of patient by agar dilution method; assay type: functional
[12] = tested on: Pseudomonas aeruginosa; assay: Antimicrobial activity against Pseudomonas aeruginosa PS41 with PFGE phenotype 11D obtained from urine of patient by agar dilution method; assay type: functional
[13] = tested on: Pseudomonas aeruginosa; assay: Antimicrobial activity against Pseudomonas aeruginosa PS5 with PFGE phenotype 7A expressing beta-lactamase KPC-2 obtained from sputum of ICU patient by agar dilution method; assay type: functional
[14] = tested on: Pseudomonas aeruginosa; assay: Antimicrobial activity against Pseudomonas aeruginosa PS17B with PFGE phenotype 11D expressing beta-lactamase KPC-2 obtained from blood of ICU patient by agar dilution method; assay type: functional
[15] = tested on: Pseudomonas aeruginosa; assay: Antimicrobial activity against Pseudomonas aeruginosa PS22 with PFGE phenotype 3A obtained from urine of patient by agar dilution method; assay type: functional
[16] = tested on: Pseudomonas aeruginosa; assay: Antimicrobial activity against Pseudomonas aeruginosa PS30 with PFGE phenotype 11D obtained from sputum of patient by agar dilution method; assay type: functional
[17] = tested on: Pseudomonas aeruginosa; assay: Antimicrobial activity against Pseudomonas aeruginosa PS3 with PFGE phenotype 12 obtained from sputum of ICU patient by agar dilution method; assay type: functional
[18] = tested on: Pseudomonas aeruginosa; assay: Antimicrobial activity against Pseudomonas aeruginosa PS13 with PFGE phenotype 11E obtained from sputum of ICU patient by agar dilution method; assay type: functional
[19] = tested on: Pseudomonas aeruginosa; assay: Antimicrobial activity against Pseudomonas aeruginosa PS34 with PFGE phenotype 4A obtained from blood of ICU patient by agar dilution method; assay type: functional
[20] = tested on: Pseudomonas aeruginosa; assay: Antimicrobial activity against Pseudomonas aeruginosa PS1 with PFGE phenotype 9C negative for blaIMP, blaVIM and blaKPC obtained from sputum of patient by agar dilution method
[21] = tested on: Pseudomonas aeruginosa; assay: Antimicrobial activity against Pseudomonas aeruginosa PS43 with PFGE phenotype 2 expressing beta-lactamase KPC-2, OXA-2 obtained from skin of ICU patient by agar dilution method; assay type: functional
[22] = tested on: Pseudomonas aeruginosa; assay: Antimicrobial activity against Pseudomonas aeruginosa PS11A with PFGE phenotype 7A obtained from sputum of ICU patient by agar dilution method; assay type: functional
[23] = tested on: Pseudomonas aeruginosa; assay: Antimicrobial activity against Pseudomonas aeruginosa PS29 with PFGE phenotype 11D obtained from sputum of patient by agar dilution method; assay type: functional
[24] = tested on: Pseudomonas aeruginosa; assay: Antimicrobial activity against Pseudomonas aeruginosa PS36 with PFGE phenotype 11B obtained from urine of patient by agar dilution method; assay type: functional
[25] = tested on: Pseudomonas aeruginosa; assay: Antimicrobial activity against Pseudomonas aeruginosa PS25 with PFGE phenotype 1A obtained from sputum of patient by agar dilution method; assay type: functional
[26] = tested on: Pseudomonas aeruginosa; assay: Antimicrobial activity against Pseudomonas aeruginosa PS7A with PFGE phenotype 11D obtained from urine of ICU patient by agar dilution method; assay type: functional
[27] = tested on: Pseudomonas aeruginosa; assay: Antimicrobial activity against Pseudomonas aeruginosa PS19A with PFGE phenotype 11C obtained from urine of patient by agar dilution method; assay type: functional
[28] = tested on: Pseudomonas aeruginosa; assay: Antimicrobial activity against Pseudomonas aeruginosa PS9 with PFGE phenotype 3B obtained from sputum of patient by agar dilution method; assay type: functional
[29] = tested on: Pseudomonas aeruginosa; assay: Antimicrobial activity against Pseudomonas aeruginosa PS39 with PFGE phenotype 8 expressing beta-lactamase IMP-18 obtained from urine of patient by agar dilution method; assay type: functional
[30] = tested on: Pseudomonas aeruginosa; assay: Antimicrobial activity against Pseudomonas aeruginosa PS28 with PFGE phenotype 6 expressing beta-lactamase KPC-5 obtained from skin of patient by agar dilution method; assay type: functional
[31] = tested on: Pseudomonas aeruginosa; assay: Antimicrobial activity against Pseudomonas aeruginosa PS15A with PFGE phenotype 10A obtained from blood of patient by agar dilution method; assay type: functional
[32] = tested on: Pseudomonas aeruginosa; assay: Antimicrobial activity against Pseudomonas aeruginosa PS2 with PFGE phenotype 10B obtained from urine of ICU patient by agar dilution method; assay type: functional
[33] = tested on: Pseudomonas aeruginosa; assay: Antimicrobial activity against Pseudomonas aeruginosa PS23 with PFGE phenotype 4A expressing beta-lactamase KPC-2 obtained from blood of patient by agar dilution method; assay type: functional
[34] = tested on: Pseudomonas aeruginosa; assay: Antimicrobial activity against Pseudomonas aeruginosa PS14 with PFGE phenotype 10C obtained from sputum of ICU patient by agar dilution method; assay type: functional
[35] = tested on: Pseudomonas aeruginosa; assay: Antimicrobial activity against Pseudomonas aeruginosa PS18A with PFGE phenotype 11D obtained from CSF of ICU patient by agar dilution method; assay type: functional
[36] = tested on: Pseudomonas aeruginosa; assay: Antimicrobial activity against OprD overproducing Pseudomonas aeruginosa PAO1 expressing mexA and oprD by agar dilution method; assay type: functional
[37] = tested on: Pseudomonas aeruginosa; assay: Antimicrobial activity against Pseudomonas aeruginosa PS6A with PFGE phenotype 11A obtained from sputum of ICU patient by agar dilution method; assay type: functional
[38] = tested on: Pseudomonas aeruginosa; assay: Antimicrobial activity against Pseudomonas aeruginosa PS12 with PFGE phenotype 7B obtained from sputum of patient by agar dilution method; assay type: functional

SMILES	MIC [1]	MIC [2]	MIC [3]	MIC [4]	MIC [5]	MIC [6]	MIC [7]	MIC [8]	MIC [9]	MIC [11]	MIC [15]	MIC [17]	MIC [20]	MIC [21]	MIC [28]	MIC [31]	MIC [32]	MIC [34]	MIC [36]	MIC [38]	other results
CC(C)(O/N=C(\C(=O)N[C@@H]1C(=O)N2C(C(=O)[O-])=C(C[n+]3ccccc3)CS[C@H]12)c1csc(N)n1)C(=O)O [CEFTAZIDIME]	64 µg/mL (≈ 117 µM)	64 µg/mL (≈ 117 µM)	64 µg/mL (≈ 117 µM)	64 µg/mL (≈ 117 µM)	> 128 µg/mL	64 µg/mL (≈ 117 µM)	> 128 µg/mL	8 µg/mL (≈ 14.6 µM)	64 µg/mL (≈ 117 µM)	> 128 µg/mL	16 µg/mL (≈ 29.3 µM)	4 µg/mL (≈ 7.32 µM)	2 µg/mL (≈ 3.66 µM)	16 µg/mL (≈ 29.3 µM)	8 µg/mL (≈ 14.6 µM)	128 µg/mL (≈ 234 µM)	128 µg/mL (≈ 234 µM)	64 µg/mL (≈ 117 µM)	1 µg/mL (≈ 1.83 µM)	64 µg/mL (≈ 117 µM)	MIC [10]: 32 µg/mL (≈ 58.5 µM); MIC [12]: 64 µg/mL (≈ 117 µM); MIC [13]: 64 µg/mL (≈ 117 µM); MIC [14]: 64 µg/mL (≈ 117 µM); MIC [16]: 64 µg/mL (≈ 117 µM); MIC [18]: 64 µg/mL (≈ 117 µM); MIC [19]: 64 µg/mL (≈ 117 µM); MIC [22]: 32 µg/mL (≈ 58.5 µM); MIC [23]: 64 µg/mL (≈ 117 µM); MIC [24]: 64 µg/mL (≈ 117 µM); MIC [25]: 64 µg/mL (≈ 117 µM); MIC [26]: 64 µg/mL (≈ 117 µM); MIC [27]: 64 µg/mL (≈ 117 µM); MIC [29]: > 128 µg/mL; MIC [30]: 128 µg/mL (≈ 234 µM); MIC [33]: 128 µg/mL (≈ 234 µM); MIC [35]: 32 µg/mL (≈ 58.5 µM); MIC [37]: 32 µg/mL (≈ 58.5 µM)
C[C@@H](O)[C@H]1C(=O)N2C(C(=O)O)=C(SCCNC=N)C[C@H]12 [IMIPENEM ANHYDROUS]	> 64 µg/mL	> 64 µg/mL	> 64 µg/mL	> 64 µg/mL	> 64 µg/mL	> 64 µg/mL	64 µg/mL (≈ 214 µM)	8 µg/mL (≈ 26.7 µM)	> 64 µg/mL	64 µg/mL (≈ 214 µM)	8 µg/mL (≈ 26.7 µM)	16 µg/mL (≈ 53.4 µM)	16 µg/mL (≈ 53.4 µM)	16 µg/mL (≈ 53.4 µM)	8 µg/mL (≈ 26.7 µM)	32 µg/mL (≈ 107 µM)	64 µg/mL (≈ 214 µM)	64 µg/mL (≈ 214 µM)	1 µg/mL (≈ 3.34 µM)	> 64 µg/mL	MIC [10]: > 64 µg/mL; MIC [12]: > 64 µg/mL; MIC [13]: > 64 µg/mL; MIC [14]: > 64 µg/mL; MIC [16]: > 64 µg/mL; MIC [18]: > 64 µg/mL; MIC [19]: > 64 µg/mL; MIC [22]: > 64 µg/mL; MIC [23]: > 64 µg/mL; MIC [24]: > 64 µg/mL; MIC [25]: > 64 µg/mL; MIC [26]: > 64 µg/mL; MIC [27]: > 64 µg/mL; MIC [29]: > 64 µg/mL; MIC [30]: > 64 µg/mL; MIC [33]: > 64 µg/mL; MIC [35]: > 64 µg/mL; MIC [37]: > 64 µg/mL
C[C@@H](O)[C@H]1C(=O)N2C(C(=O)O)=C(S[C@@H]3CN[C@H](C(=O)N(C)C)C3)[C@H](C)[C@H]12 [MEROPENEM]							32 µg/mL (≈ 83.4 µM)	16 µg/mL (≈ 41.7 µM)		32 µg/mL (≈ 83.4 µM)	16 µg/mL (≈ 41.7 µM)	8 µg/mL (≈ 20.9 µM)	8 µg/mL (≈ 20.9 µM)	32 µg/mL (≈ 83.4 µM)	16 µg/mL (≈ 41.7 µM)	16 µg/mL (≈ 41.7 µM)	16 µg/mL (≈ 41.7 µM)	16 µg/mL (≈ 41.7 µM)	0.5 µg/mL (≈ 1.3 µM)	32 µg/mL (≈ 83.4 µM)	
